From patent US10028992B2, “Methods of treating muscular dystrophy” (BOARD OF REGENTS OF THE NEVADA SYSTEM OF HIGHER EDUCATION …, priority 2012, dated 2018)

Tested on: α7 integrin promoter
Test: muscle cell-based assay: α7βgal+/− myoblasts/myotubes, LacZ reporter, β-galactosidase cleavage of FDG
Set-up: species or system mouse; Results in α7+/− β-galactosidase assay: scale not given here
Settings: Myotubes; for Results in a α7+/− β-galactosidase assay, Myotubes, 0.5 uM: compound at 0.5 uM; for Results in a α7+/− β-galactosidase assay, Myotubes, 1 uM: compound at 1 uM; for Results in a α7+/− β-galactosidase assay, Myotubes, 5 uM: compound at 5 uM; for Results in a α7+/− β-galactosidase assay, Myotubes, 10 uM: compound at 10 uM; for Results in a α7+/− β-galactosidase assay, Myotubes, 20 uM: compound at 20 uM; for Results in a α7+/− β-galactosidase assay, Myotubes, 40 uM: compound at 40 uM
Method in brief: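 Fluorescein generated from FDG by β-galactosidase reports α7 integrin promoter activity in differentiated myoblasts from α7+/− LacZ knock-in pups. Screening hits then went to dose-response, western blotting and a myostatin counterscreen.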

Cn1ccc(C(=O)Nc2cccnc2Cl)n1 [drawing 502]
Results in a α7+/− β-galactosidase assay, Myotubes, 0.5 uM: 0.04794
Results in a α7+/− β-galactosidase assay, Myotubes, 1 uM: −0.05775
Results in a α7+/− β-galactosidase assay, Myotubes, 5 uM: 0.0198
Results in a α7+/− β-galactosidase assay, Myotubes, 10 uM: 0.06627
Results in a α7+/− β-galactosidase assay, Myotubes, 20 uM: −0.1124
Results in a α7+/− β-galactosidase assay, Myotubes, 40 uM: −0.1256

CCOC(=O)c1sc(=N)n(-c2ccc(OC)cc2)c1C [drawing 503]
Results in a α7+/− β-galactosidase assay, Myotubes, 0.5 uM: 0.01467
Results in a α7+/− β-galactosidase assay, Myotubes, 1 uM: −0.0655
Results in a α7+/− β-galactosidase assay, Myotubes, 5 uM: −0.3446
Results in a α7+/− β-galactosidase assay, Myotubes, 10 uM: −0.2817
Results in a α7+/− β-galactosidase assay, Myotubes, 20 uM: −0.1985
Results in a α7+/− β-galactosidase assay, Myotubes, 40 uM: −0.1785

COc1c(Cl)cc(/C=C2\C(=O)Nc3ccccc32)cc1Cl [drawing 504]
Results in a α7+/− β-galactosidase assay, Myotubes, 0.5 uM: −0.04389
Results in a α7+/− β-galactosidase assay, Myotubes, 1 uM: −0.02066
Results in a α7+/− β-galactosidase assay, Myotubes, 5 uM: −0.212
Results in a α7+/− β-galactosidase assay, Myotubes, 10 uM: −0.2296
Results in a α7+/− β-galactosidase assay, Myotubes, 20 uM: −0.06953
Results in a α7+/− β-galactosidase assay, Myotubes, 40 uM: −0.1103

COc1c(Cl)cc(/C=C2\C(=O)Nc3ccccc32)cc1Cl [drawing 505]
Results in a α7+/− β-galactosidase assay, Myotubes, 0.5 uM: −0.1548
Results in a α7+/− β-galactosidase assay, Myotubes, 1 uM: −0.1313
Results in a α7+/− β-galactosidase assay, Myotubes, 5 uM: −0.4088
Results in a α7+/− β-galactosidase assay, Myotubes, 10 uM: −0.5935
Results in a α7+/− β-galactosidase assay, Myotubes, 20 uM: −0.3163
Results in a α7+/− β-galactosidase assay, Myotubes, 40 uM: −0.3432

CC(=O)Oc1c(Cl)cc(/C=C2\C(=O)Nc3ccccc32)cc1Cl [drawing 506]
Results in a α7+/− β-galactosidase assay, Myotubes, 0.5 uM: −0.05659
Results in a α7+/− β-galactosidase assay, Myotubes, 1 uM: −0.06941
Results in a α7+/− β-galactosidase assay, Myotubes, 5 uM: −0.2138
Results in a α7+/− β-galactosidase assay, Myotubes, 10 uM: −0.4615
Results in a α7+/− β-galactosidase assay, Myotubes, 20 uM: −0.2526
Results in a α7+/− β-galactosidase assay, Myotubes, 40 uM: −0.403

CCN(CC)CCNC(=O)c1c(C)[nH]c(CC2C(=O)Nc3ccc(F)cc32)c1C (stereo not drawn) [drawing 507]
Results in a α7+/− β-galactosidase assay, Myotubes, 0.5 uM: −0.07384
Results in a α7+/− β-galactosidase assay, Myotubes, 1 uM: −0.08032
Results in a α7+/− β-galactosidase assay, Myotubes, 5 uM: −0.9266
Results in a α7+/− β-galactosidase assay, Myotubes, 10 uM: −1.896
Results in a α7+/− β-galactosidase assay, Myotubes, 20 uM: −0.9097
Results in a α7+/− β-galactosidase assay, Myotubes, 40 uM: −0.9224

O=C1Nc2ccccc2/C1=C1\Nc2ccccc2C1=O [drawing 508]
Results in α7+/− β-galactosidase assay (0.5 uM): −0.08969
Results in α7+/− β-galactosidase assay (1 uM): −0.08698
Results in α7+/− β-galactosidase assay (5 uM): −0.493
Results in α7+/− β-galactosidase assay (10 uM): −0.5852
Results in α7+/− β-galactosidase assay (20 uM): −0.318
Results in α7+/− β-galactosidase assay (40 uM): −0.3129

Cc1[nH]c(/C=C2\C(=O)Nc3ccccc32)c(C)c1CCC(=O)O [drawing 509]
Results in α7+/− β-galactosidase assay (0.5 uM): 0.04928
Results in α7+/− β-galactosidase assay (1 uM): 0.07615
Results in α7+/− β-galactosidase assay (5 uM): −0.501
Results in α7+/− β-galactosidase assay (10 uM): −0.6162
Results in α7+/− β-galactosidase assay (20 uM): −0.2542
Results in α7+/− β-galactosidase assay (40 uM): −0.3688

Cc1cc(C)c(/C=C2\C(=O)Nc3ccccc32)[nH]1 [drawing 510]
Results in α7+/− β-galactosidase assay (0.5 uM): −0.2205
Results in α7+/− β-galactosidase assay (1 uM): −0.08303
Results in α7+/− β-galactosidase assay (5 uM): −0.5223
Results in α7+/− β-galactosidase assay (10 uM): −0.3378
Results in α7+/− β-galactosidase assay (20 uM): −0.232
Results in α7+/− β-galactosidase assay (40 uM): −0.06918

Cc1cc(C)c(/C=C2\C(=O)Nc3ccccc32)[nH]1 [drawing 512]
Results in α7+/− β-galactosidase assay (0.5 uM): −0.1661
Results in α7+/− β-galactosidase assay (1 uM): −0.09119
Results in α7+/− β-galactosidase assay (5 uM): −0.3196
Results in α7+/− β-galactosidase assay (10 uM): 0.09661
Results in α7+/− β-galactosidase assay (20 uM): −0.05031
Results in α7+/− β-galactosidase assay (40 uM): 0.151

Cc1cc(C)c(/C=C2\C(=O)Nc3ccccc32)[nH]1 [drawing 513]
Results in α7+/− β-galactosidase assay (0.5 uM): −0.1009
Results in α7+/− β-galactosidase assay (1 uM): −0.09355
Results in α7+/− β-galactosidase assay (5 uM): 0.09724
Results in α7+/− β-galactosidase assay (10 uM): 1.02
Results in α7+/− β-galactosidase assay (20 uM): 0.05028
Results in α7+/− β-galactosidase assay (40 uM): 0.1378

O=C1Nc2ccccc2/C1=C1/Nc2ccccc2/C1=N\O [drawing 514]
Results in α7+/− β-galactosidase assay (0.5 uM): −0.111
Results in α7+/− β-galactosidase assay (1 uM): −0.1122
Results in α7+/− β-galactosidase assay (5 uM): −0.8688
Results in α7+/− β-galactosidase assay (10 uM): −1.081
Results in α7+/− β-galactosidase assay (20 uM): −0.5041
Results in α7+/− β-galactosidase assay (40 uM): −0.6481

CCN(CC)CCNC(=O)c1c(C)[nH]c(CC2C(=O)Nc3ccc(F)cc32)c1C (stereo not drawn) [drawing 515]
Results in α7+/− β-galactosidase assay (0.5 uM): −0.04962
Results in α7+/− β-galactosidase assay (1 uM): −0.02655
Results in α7+/− β-galactosidase assay (5 uM): −0.4387
Results in α7+/− β-galactosidase assay (10 uM): −1.86
Results in α7+/− β-galactosidase assay (20 uM): −0.9178
Results in α7+/− β-galactosidase assay (40 uM): 0.9191
